Test results as given in patent US10294230B2, “3,3-difluoropiperidine carbamate heterocyclic compounds as NR2B NMDA receptor antagonists” (Rugen Holdings (Cayman) Limited, priority 2015, dated 2019).

Columns and labels:
human NR1/NR2B = human NR1/NR2B (Homo sapiens (Human), UniProt Q05586+Q13224); assay: NR2B antagonist activity, Fluo-4 calcium influx in HEK293 cells; assay type: cell-based
Procedure: HEK293 cell lines stably expressing cloned human NR1/NR2B and NR1/NR2A, respectively, were established according to standard previously described methods (Hansen et al., Comb. Chem High Throughput Screen. 11:304, 2008). Activation of the NR2A or NR2B subtype of NMDA receptor with glutamate as an agonist and glycine co-agonist on these cells results in calcium influx, which can be monitored with fluorescent indicator Fluo-4.
For experiments, the cells were seeded onto poly-D-lysine-coated 96-well black plates with clear bottom (Corning) at a density of ˜50,000 cells/well. After overnight culture, the growth medium was removed from the wells and the cells were incubated at 37° C. for 60 min in Hanks buffer containing 4 μM fluo-4-AM (Invitrogen) and 0.1% bovine serum albumin (BSA). After dye-loading, the cells were washed three times with Hanks buffer and incubated for 10 min at room temperature with various concentrations of test compounds prepared in Hanks buffer with 0.1% BSA. The cell plates were placed onto FDSS pCell fluorescence reader (Hamamatsu). After 20 sec reading of background fluorescence, agonist glutamate at final 100 μM and co-agonist glycine at final 50 μM were added to the cells to activate the receptor, and the resulting fluorescence changes were recorded and quantified. Based on the changes in fluorescence intensity, the pharmacological effect of test compounds were analyzed and the IC50 values derived from a non-linear least squares fitting of the concentration-dependent response to a standard logistic equation using Prism (Graphpad, Inc): Amplitude=Max Amplitude/(1+(IC50/[antagonist])^n).

NMDA receptor = assay: [3H] MK-801 radioligand binding, rat brain membranes; conditions: 2 nM [3H] MK-801
Procedure: This example describes NMDA receptor binding assays using two different radioligands, [^3H] […] An established binding assay using the non-selective NMDA receptor ligand [^3H] […] The binding assay method using the NR2B selective receptor ligand [^3H] […] This assay serves as a selective measure of NR2B receptor binding activity in native rat brain receptors. Briefly, the brains of Male Wistar rats were homogenized (Polytron) before centrifugation at 40,000×g for 15 minutes at 4° C. After 2 washes, the final pellet was homogenized and stored at −80° C. The protein concentration was determined by Bradford assay.
Test compounds were solubilized at 10 mM in DMSO. Then the dilutions were performed with a constant solvent concentration (1% DMSO) in the assay.
After incubation for 4.5 h at room temperature, the assays were filtered on GF/B filters pretreated with 0.3% (v/v) PEI with a Brandel system for [^3H] […] The experiment was performed in duplicate (n=2).

hERG channel = hERG channel (Homo sapiens (Human), UniProt Q12809); assay: hERG channel inhibition, whole cell patch clamp in HEK293 cells; assay type: cell-based
Procedure: The assay was performed on hERG channel stably expressed in HEK293 cells. The cells were cultured at 37° C. in a humidified CO2 incubator in the growth medium consisting of DMEM, 10% fetal bovine serum and antibiotics. Prior to the assay, the cells were seeded onto a 12 mm PDL-coated glass coverslip and cultured in a 35 mm Petri dish. After 16 to 40 hr culture, the cover slip was transferred into the chamber of OctaFlow perfusion system (ALA Instrument) and under a constant flow of extracellular solution (140 mM NaCl, 4 mM KCl, 1 mM MgCl2, 2 mM CaCl2, 10 mM HEPES, 10 mM D-glucose, pH 7.35, osmolarity 290). Whole cell patch clamping was performed with a glass micropipette filled with intracellular solution (120 mM KCl, 1.75 mM MgCl2, 5.4 mM CaCl2, 10 mM HEPES, 10 mM EGTA, and 4 mM ATP-K2, PH 7.2, osmolarity 310). Giga-seal was maintained during the test. The voltage control and current measurement were carried out using Axon amplifier 700B, Digidata 1440A and CLAMPEX10 software (Molecular Devices). Whole-cell hERG currents were recorded following the Petroski protocol: the cell was held at −80 mV, and the voltage step jumped from −80 to 30 mV and stay for 2 sec with a 20 ms prepulse at −40 mV. After depolarization, the voltage was decreased to −40 mV and stay for 2 sec, and returned back to −80 mV. Test compound was applied by quartz capillary tubes tip (200 μm inner diameter), and the flow rate was controlled at 2-3 ml/min with OctaFlow perfusion system. Different concentrations of the compound were applied to the cells for 5 min and the hERG current was measured three times before, during and after compound treatment. The data were analyzed using Clampfit 10 software (Molecular Devices) to generate IC50 values.

[1] = tested on: electroconvulsive threshold (tonic convulsions); assay: Electroconvulsive Threshold Test (ECT); assay type: in vivo, rats; conditions: rats, 3, 10 and 30 mpk p.o., mesylate salt
Procedure: Test compound E1-8.2 was administered as the free base.
Rats were administered ECS (rectangular current: 0.6 ms pulse width, 1.5 s duration, 200 Hz) via earclip electrodes connected to a constant current shock generator (Ugo Basile: type 7801). Test compounds were administered by oral gavage (p.o.) 1 hour before the test at a dose volume of 5 mL/kg.
Treatment groups of 20 rats were exposed to ECS as follows: The first animal was exposed to 30 mA of ECS. […] (increases of 5 mA) until the first tonic convulsion was observed. Once the first tonic convulsion was observed, the intensity of ECS was decreased by 2 mA for the next animal and then decreased or increased by 2 mA from animal to animal depending on whether the previous animal convulsed or not. If the first animal did convulse (tonic convulsions) within 5 seconds, animal no2 is exposed to 25 mA, etc. . . . (decreases of 5 mA) until the absence of tonic convulsions was observed. At this point, the intensity of ECS was increased by 2 mA for the next animal and then decreased or increased by 2 mA from animal to animal depending on whether the previous animal convulsed or not. The minimum current intensity applied is 5 mA and the maximum 95 mA. The first 5 animals serve to approach threshold current and were not included in the analysis. The results are presented as the mean current intensity administered to the final 15 animals of a group. The test was performed blind. A positive percent change indicates an anticonvulsant effect. A negative percent change indicates a proconvulsant effect. The test substance was evaluated at 4 doses, typically using 0.5% dimethylsulfoxide, 4% hydroxypropyl-b-cyclodextrin water as a vehicle, and administered p.o. 60 minutes before ECS, and compared with a vehicle control group. Diazepam (16 mg/kg p.o.), administered under the same experimental conditions, was used as reference substance. The experiment included 6 groups. Data with the test substance was analyzed by comparing treated groups with vehicle control using one-way ANOVA followed by Dunnett's t tests.

[2] = tested on: formalin-induced nociceptive behavior; assay: Rat Formalin Model; assay type: in vivo; conditions: rats, 10, 30 and 60 mpk i.p., mesylate salt
Procedure: The rat formalin model is a tonic model of continuous pain resulting from formalin-induced spontaneous nociceptive behaviors. Intra-paw injection of formalin is a commonly used model to measure spontaneous nociceptive behaviors in rodents (Dubuisson, D. and Dennis, S. G. Pain 4:161, 1977). Subcutaneous plantar injection of formalin causes a bi-phasic nocifensive behavioral response in rodents. The early phase (phase-1) lasts for about 5-10 min following which an interphase occurs without any discernible nociceptive reactions after which the late phase (phase-II) nociceptive reaction ensues continuing from about 20-60 min following formalin injection. Formalin model is a model of tonic, persistent pain, and is widely used for rapid screening of novel analgesic compounds. […] In the present example, effects of test item were assessed in 0-5 minutes from the early phase (phase-I) and 20-35 minutes from the late phase (phase-II) of formalin-induced nociceptive behavior. […]
For all groups, animals were acclimated to the observation chamber for 15 minutes immediately prior to formalin injection. All animals received an intraplantar subcutaneous injection of 50 μL of 5% formalin into the left hind paw and then placed immediately into an observation chamber and formalin-evoked spontaneous nociceptive behaviors in the rats were continuously recorded for 0-60 min using a commercial camcorder. […]

human NR1/NR2B, sequence (Q13224 27-1484, other chains not shown): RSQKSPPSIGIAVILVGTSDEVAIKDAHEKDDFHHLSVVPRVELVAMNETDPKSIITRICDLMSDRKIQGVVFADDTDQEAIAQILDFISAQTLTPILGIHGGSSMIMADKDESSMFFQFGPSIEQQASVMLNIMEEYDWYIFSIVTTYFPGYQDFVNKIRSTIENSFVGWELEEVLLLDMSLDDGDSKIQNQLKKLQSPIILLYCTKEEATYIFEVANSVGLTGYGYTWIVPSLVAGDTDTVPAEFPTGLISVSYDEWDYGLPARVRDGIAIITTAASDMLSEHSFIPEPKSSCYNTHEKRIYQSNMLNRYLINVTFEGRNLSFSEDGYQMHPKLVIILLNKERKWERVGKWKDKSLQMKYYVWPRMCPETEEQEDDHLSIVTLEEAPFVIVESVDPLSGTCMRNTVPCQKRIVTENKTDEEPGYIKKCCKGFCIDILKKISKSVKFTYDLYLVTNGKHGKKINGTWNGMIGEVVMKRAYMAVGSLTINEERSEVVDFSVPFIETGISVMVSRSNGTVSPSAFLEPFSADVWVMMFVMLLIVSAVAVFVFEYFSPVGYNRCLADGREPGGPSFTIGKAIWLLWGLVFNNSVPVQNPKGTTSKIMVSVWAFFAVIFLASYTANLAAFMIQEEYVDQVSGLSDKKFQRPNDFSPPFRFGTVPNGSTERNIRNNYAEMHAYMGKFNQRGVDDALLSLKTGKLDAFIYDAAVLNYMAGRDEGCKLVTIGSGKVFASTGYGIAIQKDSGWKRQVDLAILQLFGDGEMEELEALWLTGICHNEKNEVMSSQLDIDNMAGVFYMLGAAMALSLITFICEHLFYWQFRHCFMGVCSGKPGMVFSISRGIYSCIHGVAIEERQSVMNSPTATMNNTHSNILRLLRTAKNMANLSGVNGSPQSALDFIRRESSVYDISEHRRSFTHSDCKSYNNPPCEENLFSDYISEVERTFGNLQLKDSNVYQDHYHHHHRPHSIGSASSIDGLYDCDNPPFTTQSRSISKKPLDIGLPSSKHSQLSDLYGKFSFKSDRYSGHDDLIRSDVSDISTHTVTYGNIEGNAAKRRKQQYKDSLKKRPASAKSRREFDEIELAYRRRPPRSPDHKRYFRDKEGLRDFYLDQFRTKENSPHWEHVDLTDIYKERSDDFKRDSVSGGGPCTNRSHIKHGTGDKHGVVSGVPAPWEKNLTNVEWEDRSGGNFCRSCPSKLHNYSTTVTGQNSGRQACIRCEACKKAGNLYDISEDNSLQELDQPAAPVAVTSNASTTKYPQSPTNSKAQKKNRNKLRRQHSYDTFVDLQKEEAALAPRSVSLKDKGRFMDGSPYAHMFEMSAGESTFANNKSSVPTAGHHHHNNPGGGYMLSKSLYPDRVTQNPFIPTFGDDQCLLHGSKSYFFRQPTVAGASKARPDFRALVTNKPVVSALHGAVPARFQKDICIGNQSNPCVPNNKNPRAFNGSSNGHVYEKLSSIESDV
hERG channel, sequence (Q12809 whole entry): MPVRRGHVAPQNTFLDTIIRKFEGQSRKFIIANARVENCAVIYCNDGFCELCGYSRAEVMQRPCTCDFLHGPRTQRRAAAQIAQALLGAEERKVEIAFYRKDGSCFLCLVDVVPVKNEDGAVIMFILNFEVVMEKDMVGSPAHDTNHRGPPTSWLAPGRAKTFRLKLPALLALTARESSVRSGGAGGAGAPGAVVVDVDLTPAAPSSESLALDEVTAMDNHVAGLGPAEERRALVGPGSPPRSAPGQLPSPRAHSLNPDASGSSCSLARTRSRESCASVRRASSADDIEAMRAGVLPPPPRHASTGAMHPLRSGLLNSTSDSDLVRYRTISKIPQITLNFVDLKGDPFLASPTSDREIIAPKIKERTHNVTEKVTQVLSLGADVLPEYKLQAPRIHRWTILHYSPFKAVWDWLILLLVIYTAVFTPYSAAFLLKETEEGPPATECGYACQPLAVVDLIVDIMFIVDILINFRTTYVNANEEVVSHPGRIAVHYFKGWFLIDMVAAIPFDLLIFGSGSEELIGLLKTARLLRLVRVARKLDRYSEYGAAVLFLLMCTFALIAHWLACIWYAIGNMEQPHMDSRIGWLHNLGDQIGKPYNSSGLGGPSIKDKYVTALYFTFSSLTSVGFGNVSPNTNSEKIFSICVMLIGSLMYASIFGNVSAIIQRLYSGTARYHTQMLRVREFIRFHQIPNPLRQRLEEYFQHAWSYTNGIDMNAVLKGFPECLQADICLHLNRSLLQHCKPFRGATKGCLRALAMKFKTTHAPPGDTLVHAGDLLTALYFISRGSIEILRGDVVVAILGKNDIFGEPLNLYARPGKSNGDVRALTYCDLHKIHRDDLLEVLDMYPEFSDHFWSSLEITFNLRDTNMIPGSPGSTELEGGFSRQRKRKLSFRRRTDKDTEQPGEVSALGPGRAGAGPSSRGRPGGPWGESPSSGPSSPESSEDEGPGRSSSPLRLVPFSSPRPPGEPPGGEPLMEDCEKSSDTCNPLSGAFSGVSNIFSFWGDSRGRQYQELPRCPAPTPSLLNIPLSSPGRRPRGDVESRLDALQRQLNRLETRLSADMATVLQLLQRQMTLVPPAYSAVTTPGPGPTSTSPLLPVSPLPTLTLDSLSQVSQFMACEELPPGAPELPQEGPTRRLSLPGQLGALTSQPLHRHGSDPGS

Cc1ccc(COC(=O)N2CC[C@H](CNc3nccn4cnnc34)C(F)(F)C2)cc1 [Compound E1-1.2, (+)-R-4-methylbenzyl 4-(([1,2,4]triazolo[4,3-a]pyrazin-8-ylamino)methyl)-3,3-difluoropiperidine-1-carboxylate]
IC50 (human NR1/NR2B; Table 2.1, HEK293 human NR1/NR2B, glutamate 100 μM, glycine 50 μM): 21 nM | IC50 (human NR1/NR2B; Table 2.2): 21 nM | IC50 (human NR1/NR2B; Table 2.3): 21 nM | partial effect on [3H] MK-801 binding (NMDA receptor): 40% | hERG @ 10 μM (%) (hERG channel; 10 μM): 17% | IC50 (hERG channel; HEK293, whole cell patch clamp): 40000 nM | electroconvulsive threshold, pro-/anticonvulsant activity [1]: robust anticonvulsant activity | cumulative time spent on nociceptive behavior in phase I (0-5 mins) [2]: decreased | cumulative time spent on nociceptive behavior in phase II (20-35 mins) [2]: decreased
